Measured values reported in PubChem BioAssay AID1963446 (Molecular Pharmacology Branch, DTP, NCI, 2024).

Tested on: 993429-296-R-J1-PDC complex spheroid growth, percent test/control
Assay: Anticancer human tumor 993429-296-R-J1-PDC patient-derived uterine sarcoma cell line growth inhibition [Asc]
Details: for IC50: curve of first compound; for viability, T/C: stronger effect = lower value
Experimental: Multicellular complex tumor spheroid response to apoptosis pathway targeting inhibitors Alrizomadlin, Pelcitoclax, and Dasminapant in combination with a variety of drugs and investigational agents in selected tumor cell lines
The MDM2 inhibitor alrizomadlin, the Bcl-2/Bcl-xL inhibitor pelcitoclax, and the IAPs inhibitor dasminapant were evaluated both individually and in combination with standard of care and investigational anticancer small molecules within a complex spheroid model of solid tumors. . Complex spheroids include a stromal component modeled by human endothelial cells (HUVEC) and fibroblasts modeled by human mesenchymal stem cells (MSCs). The concentration ranges selected for each drug and investigational agent were based upon clinically achievable concentrations if the clinical Cmax of the agent was known.
Compounds. The drugs and investigational agents: alrizomadlin (APG-115; NSC831270), pelcitoclax (APG-1252; NSC835773), dasminapant (APG-1387;NSC834197), TAK-243 (NSC785004), copanlisib (NSC809693), olaparib (NSC753686), talazoparib (NSC767125), cobimetinib (NSC 768068), eltanexor (KPT-8602, NSC 794443), abemaciclib (NSC 768073), sotorasib (NSC818433), adagrasib (NSC 831453), MRTX-1133 (NSC 836407), Iadademestat (ORY1001, NSC 806812), and RMC-4630 (NSC839698), were obtained from the NCI Developmental Therapeutics Program Chemical Repository. The FDA-approved anticancer drug set is available from the Developmental Therapeutics Program at https://dtp.cancer.gov/organization/dscb/obtaining/available plates.htm. […] The stock solutions were prepared in dimethyl sulfoxide (DMSO, Sigma-Aldrich, St. Louis, MO, cat. D2650) at 800-fold the tested concentration and stored at -70 degrees C prior to their use. All drugs and investigational agents were tested over a range starting from a high concentration at or near the clinical Cmax and decreasing in half-log increments. If the clinical Cmax for an agent had not been determined, the highest concentration tested was 10 microM.
The patient-derived cancer (PDC) cell lines include five colon adenocarcinomas: 186277-243-T-J2-PDC, 616215-338-R-J1-PDC, 439559-082-T-J2-PDC, 463943-066-T-J2-PDC, and 519858-162-T-J1-PDC; three pancreatic carcinomas: 323965-272-R-J2-PDC, 521955-158-R6-J3-PDC, and 521955-158-R2-J5-PDC; two uterine sarcomas: 327498-152-R-J2-PDC and 993429-296-R-J1-PDC; two rhabdomyosarcomas: 755483-174-R-J1-PDC and 772245-204-R-J1-PDC; two soft tissue sarcomas: 126254-015-R-J1-PDC and 494315-158-R-J1-PDC; two malignant fibrous histiocytomas: 317291-083-R-J1-PDC and 596521-263-R-J1-PDC; two breast carcinomas: 171881-019-R-J1-PDC and 885512-296-R-J2-PDC; and one ovarian carcinoma: 6556581-035-R-J-PDC were obtained from the NCI PDMR, (https://pdmr.cancer.gov). The established cell lines HSSY-2 synovial sarcoma (RRID:CVCL 8719), SYO-1 synovial sarcoma (RRID:CVCL_7146), MPNST malignant peripheral neural sheath tumor were obtained from the Sloan Kettering Institute. The following established cell lines were purchased from the American Type Culture Collection (ATCC, Manassas, VA), Sor the received from the NCI repository:, PANC-1 pancreatic carcinoma (CRL-1469, RRID:CVCL_0480), OVCAR-5 ovarian carcinoma (RRID:CVCL_1628), OVCAR-8 ovarian carcinoma (RRID:CVCL_1629), , MCF-7 breast carcinoma (CRL-12584, RRID:CVCL_0031), MDA-MB-231 breast carcinoma (CRL-12532, RRID:CVCL_0062), NCI-H1876 small cell lung carcinoma (CRL-5902, RRID:CVCL_1503), NCI-H510A small cell lung carcinoma (HTB-184, RRID:CVCL_1565), NCI-H1417 (CRL-5869, RRID:CVCL_1469), and NCI-H196 small cell lung carcinoma (CRL-5823, RRID:CVCL_1509). Dr. Peter Houghton (Greehey Children's Cancer Research Institute, University of Texas Health Science Center, San Antonio, TX) provided Rh-18 rhabdomyosarcoma (RRID:CVCL_1659). Pooled donor human umbilical vein endothelial cells (HUVEC, Lonza, cat. CC-2519) and human mesenchymal stem cells (hMSC, Lonza, cat. PT-2501) were purchased from Lonza (Walkersville, MD).
Cell Culture. […]
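Also: spheroids exposed to compounds for seven days.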

O=C(c1ccc(F)c(F)c1Nc1ccc(I)cc1F)N1CC(O)([C@@H]2CCCCN2)C1 + CNC(C)C(=O)NC1CN(S(=O)(=O)c2cccc(S(=O)(=O)N3CCC4CCC(C(=O)NC(c5ccccc5)c5ccccc5)N4C(=O)C(NC(=O)C(C)NC)C3)c2)CCC2CCC(C(=O)NC(c3ccccc3)c3ccccc3)N2C1=O
IC50 (second compound 0.01 µM): 0.0565 µM
IC50 (second compound 0.0316 µM): 0.0309 µM
IC50 (second compound 0.1 µM): 0.0272 µM
IC50 (second compound 0.316 µM): < 0.00316 µM
IC50 (second compound 1 µM): 0.0114 µM
viability, T/C (second compound 0.01 µM, first compound 0.00316 µM): 65.5%
viability, T/C (second compound 0.01 µM, first compound 0.01 µM): 64.5%
viability, T/C (second compound 0.01 µM, first compound 0.0316 µM): 50.4%
viability, T/C (second compound 0.01 µM, first compound 0.1 µM): 48.9%
viability, T/C (second compound 0.01 µM, first compound 0.316 µM): 25.3%
viability, T/C (second compound 0.01 µM, first compound 1 µM): 1.67%
viability, T/C (second compound 0.0316 µM, first compound 0.00316 µM): 61.7%
viability, T/C (second compound 0.0316 µM, first compound 0.01 µM): 51.2%
viability, T/C (second compound 0.0316 µM, first compound 0.0316 µM): 55.2%
viability, T/C (second compound 0.0316 µM, first compound 0.1 µM): 33.4%
viability, T/C (second compound 0.0316 µM, first compound 0.316 µM): 19.1%
viability, T/C (second compound 0.0316 µM, first compound 1 µM): 1.07%
viability, T/C (second compound 0.1 µM, first compound 0.00316 µM): 56.4%
viability, T/C (second compound 0.1 µM, first compound 0.01 µM): 57.5%
viability, T/C (second compound 0.1 µM, first compound 0.0316 µM): 50.7%
viability, T/C (second compound 0.1 µM, first compound 0.1 µM): 29.6%
viability, T/C (second compound 0.1 µM, first compound 0.316 µM): 14.9%
viability, T/C (second compound 0.1 µM, first compound 1 µM): 1.5%
viability, T/C (second compound 0.316 µM, first compound 0.00316 µM): 48.3%
viability, T/C (second compound 0.316 µM, first compound 0.01 µM): 45.4%
viability, T/C (second compound 0.316 µM, first compound 0.0316 µM): 50.7%
viability, T/C (second compound 0.316 µM, first compound 0.1 µM): 34.1%
viability, T/C (second compound 0.316 µM, first compound 0.316 µM): 11%
viability, T/C (second compound 0.316 µM, first compound 1 µM): 0.99%
viability, T/C (second compound 1 µM, first compound 0.00316 µM): 54.8%
viability, T/C (second compound 1 µM, first compound 0.01 µM): 48.4%
viability, T/C (second compound 1 µM, first compound 0.0316 µM): 43.6%
viability, T/C (second compound 1 µM, first compound 0.1 µM): 38.5%
viability, T/C (second compound 1 µM, first compound 0.316 µM): 12.7%
viability, T/C (second compound 1 µM, first compound 1 µM): 0.99%
